Measurements reported in patent publication US7482415B2, “Process for producing fluoroionomer, method for purification and concentration of the ionomer, and method of film formation” (Daikin Industries, Ltd., priority 2000, dated 2009).

Legend:
Type in all cases: physicochemical
[1] = Dissolution test (Solvent D): dissolving power of acids for S monomer, visually evaluated; set-up: key: A: Completely dissolved; B: Partially dissolved or swelled; C: Not dissolved; conditions: small amount of S monomer
Method: (§1) Each solvent shown in the following table (50 cc) was placed in an individual test tube, and a small amount of S monomer was added to test the dissolving power.
The dissolving power was visually evaluated on the following scale of three. […] A: Completely dissolved; B: Partially dissolved or swelled; C: Not dissolved

[2] = Dissolution test (Solvent A): dissolving power of solvents for S monomer, visually evaluated; set-up: key: A: Completely dissolved; B: Partially dissolved or swelled; C: Not dissolved; conditions: small amount of S monomer
Method: as §1
The dissolving power was visually evaluated on the following scale of three. […] A: Completely dissolved; B: Partially dissolved or swelled; C: Not dissolved.

[3] = Solubility test of S monomer in solvents

In the case of `O=S(=O)([O-])C(F)(F)C(F)(F)OC(F)=C(F)F.[Na+]` [S monomer, CF2═CFOCF2CF2SO3Na], the Dissolving power ([1]; acid Acetic acid (50 cc)) is reported as “A”, the Dissolving power ([1]; acid CF2═CFCF2COOH (50 cc)) is reported as “A” and the Dissolving power ([1]; acid Hexafluoroisopropanol (50 cc)) is reported as “A”. The Dissolving power ([1]; acid Hydrofluoric acid (50 cc)) was “A”, the Dissolving power ([1]; acid Trifluoroacetic acid (50 cc)) was “A” and the Dissolving power ([2]; solvent Acetic acid (50 cc)) was “A”. The Dissolving power ([2]; solvent Acetone (50 cc)) was “A”, the Dissolving power ([2]; solvent Acetonitrile (50 cc)) was “A” and the Dissolving power ([2]; solvent Benzene (50 cc)) was “C”. For the same compound, the Dissolving power ([2]; solvent Carbon disulfide (50 cc)) was “C”, the Dissolving power ([2]; solvent Chloroform (50 cc)) was “C” and the Dissolving power ([2]; solvent Diethyl ether (50 cc)) was “C”. The Dissolving power ([2]; solvent Dimethylformamide (50 cc)) was “A”, the Dissolving power ([2]; solvent Diphenyl ether (50 cc)) was “C” and the Dissolving power ([2]; solvent Ethanol (50 cc)) was “A”. For the same compound, the Dissolving power ([2]; solvent Ethyl acetate (50 cc)) was “A”, the Dissolving power ([2]; solvent Hexane (50 cc)) was “C” and the Dissolving power ([2]; solvent Isopropanol (50 cc)) was “A”. For the same compound, the Dissolving power ([2]; solvent Methanol (50 cc)) was “A”, the Dissolving power ([2]; solvent Pyridine (50 cc)) was “A” and the Dissolving power ([2]; solvent Tetrahydrofuran (50 cc)) was “A”. For the same compound, the Dissolving power ([2]; solvent Trifluoroacetic acid (50 cc)) was “A”, the Solubility ([3]; in Dimethoxyethane) was 2700 mM and the Solubility ([3]; in Hexafluoroisopropanol) was 30 mM. The Solubility ([3]; in Trifluoroacetic acid) was 700 mM, the Solubility ([3]; in sec-Butanol) was 770 mM and the Solubility ([3]; in t-Butanol) was 530 mM.
